Measured values from US6361805B1, “Method of preparation and composition of a water soluble extract of the plant species uncaria for enhancing immune, anti-inflammatory, anti-tumor and DNA repair processes of warm blooded animals” (priority 1997, dated 2002).

Test system: HL-60 cells
Assay: Induction of apoptosis, scored by phase contrast morphological criteria
Assay type: cell-based, human
Settings: HL-60, 100 μM hydrogen peroxide positive control, 0-72 hours
Protocol: FIG. 2. Time course of apoptosis in HL-60 cells induced by C-MED-100 extract (Example 1) as compared to negative (no treatment) or positive (100 μM H2O2 exposure) controls.
For the purpose of evaluating apoptosis in vitro, human leukemic HL-60 cells were cultured at a density of 0.5×10^6 cells per milliliter in 10% calf serum supplemented RPMI medium in a 5% CO2 atmosphere at 37° C. for 48 hours. The cells were harvested by centrifugation and resuspended in a fresh medium at a concentration of 1-2×10^6 cells per milliliter in 15 milliliter Falcon test tubes for bioassay purposes. Next the cells were exposed to either 100 μM hydrogen peroxide as a positive control or 397 μg per milliliter C-Med-100 extract prepared according to Example 1 or no exposure for 0-72 hours at 37° C. Samples of cells were taken from the cultures at the time periods indicated in FIG. 2 and the % apoptosis in the total cells counted were analyzed and scored by phase contrast morphological criteria.

OO [Hydrogen peroxide]
apoptotic cells over time: massive cell death by apoptosis within 24 hours
